Experimental data: patent US10450356B2, “PRAME derived peptides and immunogenic compositions comprising these” (Academisch Ziekenhuis Leiden H.O.D.N. LUMC, priority 2007, dated 2019)
Marks after values point to notes of the source that are not given here. Where a SMILES comes first, the peptide text is derived from it.

Molecular target: T1, 20S proteasomes purified from a B-LCL cell line (immunoproteasomes) (Homo sapiens, UniProt P28062+P28065+P40306)
T1 construct: 20S proteasomes were purified from a B-LCL cell line; endogenous in cells; purified after Groettrup et al. 1995
Assay: In vitro proteasome mediated cleavage analysis
Type: biochemical
Set-up: key to Intact in fragment / Intact Fragment: intact epitope found in digestion fragments: (+), present; (-), not present; key to Processing C-term: generation by proteasome-mediated digestion of fragments containing the correct C-terminus: (++) fragments present for >5%; (+) present for <5%; (-) no fragments containing the C-term. were found
Settings: for Processing C-term: generation by proteasome-mediated digestion of fragments containing the correct C-terminus: 1 h digestion; for Intact Fragment: intact epitope found in digestion fragments: after 1 h digestion; for Intact in fragment: intact epitope found in digestion fragments after 1 h digestion; for C-term. generation: generation of C-terminus of the epitope after 1 h digestion
In short: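 Cleavage products were analysed by on-line nanoESI Q-TOF mass spectrometry, and relative fragment amounts came from peak intensities. Digests contained 20 μg of 27-mer peptide and 1 μg of 20S immunoproteasome purified from B-LCL cells. They ran at 37° C for 1, 4 or 24 h and were stopped with trifluoroacetic acid.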

| SMILES | Processing C-term: generation by proteasome-mediated digestion of fragments containing the correct C-terminus | Intact Fragment: intact epitope found in digestion fragments | Intact in fragment | C-term. generation |
| --- | --- | --- | --- | --- |
| CC(C)C[C@H](NC(=O)[C@@H](NC(=O)[C@@H]1CCCN1C(=O)[C@H](CC(C)C)NC(=O)[C@H](CCCCN)NC(=O)[C@H](Cc1c[nH]c2ccccc12)NC(=O)[C@@H](NC(=O)[C@@H](N)CS)[C@@H](C)O)[C@@H](C)O)C(=O)N[C@@H](C)C(=O)N[C@@H](CCCCN)C(=O)O | - | - |  |  |
| CC(C)C[C@H](NC(=O)[C@H](CC(C)C)NC(=O)[C@H](CC(C)C)NC(=O)[C@H](CCCNC(=N)N)NC(=O)[C@H](CCCNC(=N)N)NC(=O)[C@H](CC(C)C)NC(=O)[C@@H](N)CC(N)=O)C(=O)N[C@@H](CO)C(=O)N[C@@H](Cc1c[nH]cn1)C(=O)O | - | - |  |  |
| CC[C@H](C)[C@H](NC(=O)[C@H](CCSC)NC(=O)[C@H](CCC(N)=O)NC(=O)CNC(=O)[C@H](CC(C)C)NC(=O)[C@H](Cc1ccc(O)cc1)NC(=O)[C@@H]1CCCN1)C(=O)N[C@@H](CC(N)=O)C(=O)N[C@@H](CC(C)C)C(=O)O | +^(k) ((+) present for <5%) | + | + |  |
| CC[C@H](C)[C@H](NC(=O)[C@H](C)NC(=O)[C@H](CC(C)C)NC(=O)[C@H](C)NC(=O)[C@H](CCC(=O)O)NC(=O)[C@H](CC(=O)O)NC(=O)[C@H](CCCCN)NC(=O)[C@H](CC(C)C)NC(=O)[C@@H](N)CC(C)C)C(=O)O | ++ ((++) fragments present for >5%) | + | + | ++ (abundant (++) present for >5%) |
| CSCC[C@H](NC(=O)[C@H](C)N)C(=O)N[C@H](C(=O)N[C@@H](CCC(N)=O)C(=O)N[C@@H](C)C(=O)N[C@@H](Cc1c[nH]c2ccccc12)C(=O)N1CCC[C@H]1C(=O)N[C@@H](Cc1ccccc1)C(=O)N[C@H](C(=O)N[C@@H](CS)C(=O)O)[C@@H](C)O)C(C)C | - | - |  |  |
| CC[C@H](C)[C@H](N)C(=O)N1CCC[C@H]1C(=O)N[C@H](C(=O)N[C@@H](CCC(=O)O)C(=O)N[C@H](C(=O)N[C@@H](CC(C)C)C(=O)N[C@H](C(=O)N[C@@H](CC(=O)O)C(=O)N[C@@H](CC(C)C)C(=O)N[C@@H](Cc1ccccc1)C(=O)O)C(C)C)C(C)C)C(C)C | - | - |  |  |
| CC[C@H](C)[C@H](NC(=O)[C@H](CC(C)C)NC(=O)[C@H](Cc1ccc(O)cc1)NC(=O)[C@H](CO)NC(=O)[C@H](Cc1ccccc1)NC(=O)[C@H](CC(C)C)NC(=O)[C@@H](N)CCC(=O)O)C(=O)N[C@@H](CCC(=O)O)C(=O)N[C@@H](CCCCN)C(=O)N[C@H](C(=O)O)C(C)C | - | - |  |  |
| CC[C@H](C)[C@H](NC(=O)[C@@H]1CCCN1C(=O)[C@@H](N)CCC(=O)O)C(=O)N[C@@H](CC(C)C)C(=O)N[C@@H](CS)C(=O)N1CCC[C@H]1C(=O)N[C@@H](CS)C(=O)N[C@@H](Cc1ccccc1)C(=O)N[C@@H](CCSC)C(=O)O (H-EPILCPCFM-OH) | - | - |  |  |
| CC(C)C[C@H](NC(=O)[C@H](Cc1ccc(O)cc1)NC(=O)[C@@H]1CCCN1C(=O)[C@H](CO)NC(=O)[C@H](Cc1ccccc1)NC(=O)[C@H](CCCCN)NC(=O)[C@H](C)NC(=O)[C@H](CC(C)C)NC(=O)[C@@H](N)[C@@H](C)O)C(=O)O | + ((+) present for <5%) | + | + | + (low abundant (+) present for <5%) |
| CC(C)C[C@H](NC(=O)[C@H](CO)NC(=O)[C@H](C)NC(=O)[C@H](CCCNC(=N)N)NC(=O)[C@H](CC(N)=O)NC(=O)CNC(=O)[C@H](CO)NC(=O)[C@@H](N)Cc1c[nH]c2ccccc12)C(=O)N[C@@H](Cc1ccc(O)cc1)C(=O)O | - | - |  |  |
| CC(C)C[C@H](NC(=O)[C@H](CC(C)C)NC(=O)[C@@H](NC(=O)[C@H](CC(=O)O)NC(=O)[C@H](CC(C)C)NC(=O)CNC(=O)[C@H](CC(=O)O)NC(=O)[C@H](CC(C)C)NC(=O)[C@@H](NC(=O)[C@H](C)N)C(C)C)C(C)C)C(=O)O | ++ ((++) fragments present for >5%) | + | + | ++ (abundant (++) present for >5%) |
| CC(C)C[C@H](NC(=O)[C@H](Cc1ccccc1)NC(=O)[C@H](Cc1ccccc1)NC(=O)[C@H](CC(C)C)NC(=O)[C@H](CO)NC(=O)[C@H](CC(=O)O)NC(=O)[C@@H](NC(=O)[C@@H](N)Cc1ccc(O)cc1)C(C)C)C(=O)N[C@@H](CCCNC(=N)N)C(=O)O | + ((+) present for <5%) | - |  |  |
| CC[C@H](C)[C@H](NC(=O)[C@H](CCSC)NC(=O)[C@H](CCC(N)=O)NC(=O)CNC(=O)[C@H](CC(C)C)NC(=O)[C@@H](N)Cc1ccc(O)cc1)C(=O)N[C@@H](CC(N)=O)C(=O)N[C@@H](CC(C)C)C(=O)N[C@@H](CCCNC(=N)N)C(=O)N[C@@H](CCCNC(=N)N)C(=O)O | - | - |  |  |
| CC(C)C[C@H](NC(=O)CNC(=O)[C@H](CC(=O)O)NC(=O)[C@H](CC(C)C)NC(=O)[C@@H](NC(=O)[C@H](C)NC(=O)[C@H](CCCCN)NC(=O)[C@H](Cc1ccccc1)NC(=O)[C@@H](N)[C@@H](C)O)C(C)C)C(=O)O | - | - |  |  |
| CSCC[C@H](NC(=O)[C@@H](NC(=O)[C@H](CC(=O)O)NC(=O)CNC(=O)[C@H](CCC(=O)O)NC(=O)[C@H](CO)NC(=O)[C@H](CC(C)C)NC(=O)[C@@H](N)CCCNC(=N)N)C(C)C)C(=O)N[C@@H](Cc1c[nH]cn1)C(=O)N[C@@H](CC(C)C)C(=O)O |  |  | + | + (low abundant (+) present for <5%) |
| CC[C@H](C)[C@H](NC(=O)[C@H](CO)NC(=O)[C@H](CC(N)=O)NC(=O)CNC(=O)[C@H](Cc1ccc(O)cc1)NC(=O)[C@H](Cc1ccccc1)NC(=O)[C@H](CO)NC(=O)[C@H](CC(C)C)NC(=O)[C@@H](N)[C@@H](C)O)C(=O)O | - | - | + | ++ (abundant (++) present for >5%) |
| CC(C)C[C@H](NC(=O)[C@@H](NC(=O)[C@H](CC(=O)O)NC(=O)[C@H](CC(C)C)NC(=O)CNC(=O)[C@H](CC(=O)O)NC(=O)[C@H](CC(C)C)NC(=O)[C@@H](NC(=O)[C@H](C)N)C(C)C)C(C)C)C(=O)O | - | - |  |  |
| CC(C)C[C@H](NC(=O)CNC(=O)[C@H](CC(=O)O)NC(=O)[C@H](CC(C)C)NC(=O)[C@@H](N)C(C)C)C(=O)N[C@@H](CC(=O)O)C(=O)N[C@H](C(=O)N[C@@H](CC(C)C)C(=O)N[C@@H](CC(C)C)C(=O)N[C@@H](C)C(=O)O)C(C)C | - | - |  |  |
| CC[C@H](C)[C@H](NC(=O)[C@H](CO)NC(=O)[C@H](CC(C)C)NC(=O)[C@@H](N)[C@@H](C)O)C(=O)N[C@H](C(=O)N[C@@H](CC(N)=O)C(=O)N[C@@H](CS)C(=O)N[C@@H](CCCNC(=N)N)C(=O)N[C@@H](CC(C)C)C(=O)O)[C@@H](C)O |  |  | + | ++ (abundant (++) present for >5%) |
| CC(C)C[C@H](NC(=O)[C@@H](NC(=O)[C@H](Cc1c[nH]cn1)NC(=O)[C@@H](NC(=O)[C@H](CC(C)C)NC(=O)[C@@H](N)CC(N)=O)[C@@H](C)O)C(C)C)C(=O)N[C@@H](Cc1ccc(O)cc1)C(=O)N1CCC[C@H]1C(=O)N[C@H](C(=O)O)C(C)C | - | - |  |  |
| CC[C@H](C)[C@H](NC(=O)[C@H](CO)NC(=O)CNC(=O)[C@H](Cc1c[nH]c2ccccc12)NC(=O)[C@H](CC(C)C)NC(=O)[C@@H](N)CCCNC(=N)N)C(=O)N[C@@H](CCC(N)=O)C(=O)N[C@@H](CO)C(=O)N[C@@H](CCCNC(=N)N)C(=O)O | - | - |  |  |
| CC(C)C[C@H](NC(=O)[C@@H](NC(=O)[C@H](CC(N)=O)NC(=O)[C@H](CCCCN)NC(=O)[C@H](CCCCN)NC(=O)[C@H](CCCNC(=N)N)NC(=O)[C@H](CCCCN)NC(=O)[C@@H](NC(=O)[C@@H](N)CCCCN)C(C)C)C(C)C)C(=O)N[C@@H](CCCNC(=N)N)C(=O)O | - | - |  |  |
| CC(C)C[C@H](NC(=O)[C@@H]1CCCN1C(=O)[C@H](CCC(=O)O)NC(=O)[C@@H]1CCCN1C(=O)[C@H](CO)NC(=O)[C@@H](NC(=O)[C@H](CC(=O)O)NC(=O)[C@@H](NC(=O)[C@@H](N)CC(C)C)[C@@H](C)O)C(C)C)C(=O)N[C@@H](CCC(N)=O)C(=O)N[C@@H](C)C(=O)O | + ((+) present for <5%) | + | + | + (low abundant (+) present for <5%) |
